Consider 20 molecules from patent publication US20210355104A1, “ADENOSINE RECEPTOR BINDING COMPOUNDS” (Nikang Therapeuticsm Inc., priority 2018, published 2021).

Values joined by “and” are separate entries in the source; they are usually repeats but may differ in a detail not shown here. Equal entries are not always repeated.

For assay [1], the system named is p-CREB (phosphorylated cAMP response-element binding protein) in human whole blood. Kind of assay: p-CREB assay in human whole blood by flow cytometry (NECA stimulation, CD4 staining). The format is cell-based. The following applies: replicate values separated by /. How it is done: Assay protocol for p-CREB (phosphorylated cAMP response-element binding protein) in human whole blood by flow cytometry
Fresh human whole blood (Biological Specialty Corporation) was added at 100 ul per wellinto a 96-well plate and treated with test compounds (Serial dilutions of 1:3 with starting concentration at 30 uM, 11 concentrations total, in the presence of adenosine deaminase) for one hour at room temperature on a plate shaker. Then 10 ul of 10× NECA (50 uM stock in PBS) and 10 ul of 10 × Rolipram (50 uM stock in PBS) were added, with designated wells for unstimulated (Rolipram+DMSO) and stimulated (Rolipram+NECA+DMSO) conditions. The plates were mixed well and incubated at room temperature for 30 min on a plate shaker. 1× lyse/Fix buffer (5× stock, BD #558049) was warmed to 37° in a water bath. 1200 ul of pre-warmed 1× lyse/Fix buffer was then added to the plate, which was then sealed and mixed by inverting the plate a few times. The plate was then incubated for 30 min at 37° in a water bath. After incubation, the plate was centrifuged at 1600 rpm for 5 min and the supernatant was decanted, then 1200 ul PBS was added and the plate was mixed by inverting a few times followed by centrifuging at 1600 rpm for 5 min and again decanting the supernatant. Then, 200 ul FIX PERM buffer II (BD #558052) was added and the plate was mixed well, then kept on ice for 45 min After spinning the plate at 1600 rpm for 5 min the supernatant was again decanted. Then was added 200 ul staining buffer (BD #554657), and the plate was mixed well and spun at 1600 rpm for 5 min, then the supernatant was again decanted. 200 ul staining buffer was added, the plate was mixed well and the plate was sealed at this step for storage at 4° overnight or until staining. Before staining, the plate was spun at 1600 rpm for 5 min and the supernatant was again decanted. Antibody mix in staining buffer was prepared (75 ul/well, 1:50 dilution for p-CREB antibody from Cell Signaling Tech #14001S, 1:200 dilution for CD4 antibody from BD #566320) and the cells were resuspended in the above antibody mix solution. After mixing well, the plate was incubated (shielded from light) at room temperature for two hours on a plate shaker. It was then spun at 1600 rpm for 5 min and the supernatant was decanted. 200 ul staining buffer was then added to wash cells, and the plate was then mixed by shaking or pipetting. The wash step was repeated at least one more time, and after the final wash, cells were resusptended in 200 ul staining buffer in U bottom plate for flow cytometry analysis.
Background: Flow cytometry measures light scatter and fluorescence of single cells or particles in a stream.

In the next assay the target is Adenosine A2A receptor (Homo sapiens, UniProt P29274). The assay can be described thus: cAMP assay in 293A cells stably expressing the adenosine A2A receptor (CGS21680 stimulation, HTRF). The class given is cell-based. Further details: expressed in transfected cells; host or cells: 293A cells (Invitrogen, Cat# R705-07) infected with A2A-expressing lentivirus (custom packaged by Biosettia), puromycin selected. Conditions: 293A cells stably expressing A2A receptor; 0.1% BSA; 1 uM CGS21680 stimulation; replicate values separated by /; read-out: cAMP (nM) 0.1% BSA, 1 uM CGS.
Chain of Adenosine A2A receptor (P29274 whole entry): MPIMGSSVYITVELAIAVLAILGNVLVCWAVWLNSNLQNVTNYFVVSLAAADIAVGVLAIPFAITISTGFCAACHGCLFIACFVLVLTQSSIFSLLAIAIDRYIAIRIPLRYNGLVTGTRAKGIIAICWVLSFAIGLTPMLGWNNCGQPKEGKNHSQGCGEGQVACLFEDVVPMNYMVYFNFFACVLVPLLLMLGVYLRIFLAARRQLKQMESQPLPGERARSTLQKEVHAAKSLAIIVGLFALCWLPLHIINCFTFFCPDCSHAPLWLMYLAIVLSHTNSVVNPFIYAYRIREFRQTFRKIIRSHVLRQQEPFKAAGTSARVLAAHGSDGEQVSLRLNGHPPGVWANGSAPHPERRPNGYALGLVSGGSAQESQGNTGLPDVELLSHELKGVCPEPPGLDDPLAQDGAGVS

In the case of `CCC(CC)(C(=O)O)c1cccc(COc2nc(N)nc(-c3ccc(F)cc3)c2-c2cc(C)nc(C(F)F)c2)n1` [Example 398, 2-(6-(((2-amino-5-(2-(difluoromethyl)-6-methylpyridin-4-yl)-6-(4-fluorophenyl)pyrimidin-4-yl)oxy)methyl)pyridin-2-yl)-2-ethylbutanoic acid], the IC50 in assay [1] (Homo sapiens) was 43.6 nM; in assay [1], 26.2 nM; at Adenosine A2A receptor it was 20 nM and 70 nM and 68 nM and 141 nM.

For `Cc1cc(-c2c(OCc3cccc(-c4nn[nH]n4)n3)nc(N)nc2-c2ccc(F)cc2)cc(C(F)F)n1` [Example 399, 4-((6-(2H-tetrazol-5-yl)pyridin-2-yl)methoxy)-5-(2-(difluoromethyl)-6-methylpyridin-4-yl)-6-(4-fluorophenyl)pyrimidin-2-amine], the IC50 in assay [1] (Homo sapiens) is 201 nM; at Adenosine A2A receptor, 273 nM and 362 nM and 482 nM and 440 nM.

Turning to `Cc1cc(-c2c(OCc3cccc(N(CCO)CCO)n3)nc(N)nc2-c2ccc(F)cc2)cc(C(F)F)n1` [Example 402, 2,2′-((6-(((2-amino-5-(2-(difluoromethyl)-6-methylpyridin-4-yl)-6-(4-fluorophenyl)pyrimidin-4-yl)oxy)methyl)pyridin-2-yl)azanediyl)bis(ethan-1-ol)], the IC50 in assay [1] (Homo sapiens) is 692 nM; at Adenosine A2A receptor, 515 nM and 579 nM and 560 nM.

Regarding `CNCc1cccc(COc2nc(N)nc(-c3ccc(F)cc3)c2-c2cc(C)nc(C(F)F)c2)n1` [Example 403, 5-(2-(difluoromethyl)-6-methylpyridin-4-yl)-4-(4-fluorophenyl)-6-((6-((methylamino)methyl)pyridin-2-yl)methoxy)pyrimidin-2-amine], the IC50 in assay [1] (Homo sapiens) is 108 nM; on Adenosine A2A receptor, 249 nM and 322 nM and 311 nM.

`Cc1cc(-c2c(OCc3cccc(C(C)(C)NCCO)n3)nc(N)nc2-c2ccc(F)cc2)cc(C(F)F)n1` [Example 407, 2-((2-(6-(((2-amino-5-(2-(difluoromethyl)-6-methylpyridin-4-yl)-6-(4-fluorophenyl)pyrimidin-4-yl)oxy)methyl)pyridin-2-yl)propan-2-yl)amino)ethan-1-ol]: the IC50 in assay [1] (Homo sapiens) was 91.5 nM; at Adenosine A2A receptor, 107 nM and 88 nM.

As for `Cc1cc(-c2c(OCCN3CCCc4cccnc43)nc(N)nc2-c2ccc(F)cc2)cc(C(F)F)n1` [Example 408, 5-(2-(difluoromethyl)-6-methylpyridin-4-yl)-4-(2-(3,4-dihydro-1,8-naphthyridin-1 (2H)-yl)ethoxy)-6-(4-fluorophenyl)pyrimidin-2-amine], the IC50 is 37.9 nM in assay [1] (Homo sapiens); 68 nM and 41 nM and 19 nM and 74 nM at Adenosine A2A receptor.

As for `COC(=O)NCc1cccc(COc2nc(N)nc(-c3ccc(F)cc3)c2-c2cc(C)nc(C(F)F)c2)n1` [Example 410, methyl((6-(((2-amino-5-(2-(difluoromethyl)-6-methylpyridin-4-yl)-6-(4-fluorophenyl)pyrimidin-4-yl)oxy)methyl)pyridin-2-yl)methyl)carbamate], the IC50 in assay [1] (Homo sapiens) is 20 nM; at Adenosine A2A receptor, 97 nM and 142 nM and 124 nM and 178 nM.

For `Cc1cc(-c2c(OCc3ccnc(N)n3)nc(N)nc2-c2ccc(F)cc2)cc(C(F)F)n1` [Example 413, 4-((2-aminopyrimidin-4-yl)methoxy)-5-(2-(difluoromethyl)-6-methylpyridin-4-yl)-6-(4-fluorophenyl)pyrimidin-2-amine], the IC50 was 50.2 nM in assay [1] (Homo sapiens); 40.8 nM in assay [1]; 4.5 nM and 19 nM and 14 nM on Adenosine A2A receptor.

As for `CNC(=O)NCc1cccc(COc2nc(N)nc(-c3ccc(F)cc3)c2-c2cc(C)nc(C(F)F)c2)n1` [Example 415, 1-((6-(((2-amino-5-(2-(difluoromethyl)-6-methylpyridin-4-yl)-6-(4-fluorophenyl)pyrimidin-4-yl)oxy)methyl)pyridin-2-yl)methyl)-3-methylurea], the IC50 was 16 nM in assay [1] (Homo sapiens); 97 nM and 152 nM and 129 nM at Adenosine A2A receptor.

For `Cc1cc(-c2c(OCc3cccc(C(C)(C)NC(CO)CO)n3)nc(N)nc2-c2ccc(F)cc2)cc(C(F)F)n1` [Example 417, 2-((2-(6-(((2-amino-5-(2-(difluoromethyl)-6-methylpyridin-4-yl)-6-(4-fluorophenyl)pyrimidin-4-yl)oxy)methyl)pyridin-2-yl)propan-2-yl)amino)propane-1,3-diol], the IC50 in assay [1] (Homo sapiens) was 38.7 nM; on Adenosine A2A receptor, 60 nM and 44 nM.

With `Cc1cc(-c2c(OCc3cccc(CNCCO)n3)nc(N)nc2-c2ccc(F)cc2)cc(C(F)F)n1` [Example 418, 2-(((6-(((2-amino-5-(2-(difluoromethyl)-6-methylpyridin-4-yl)-6-(4-fluorophenyl)pyrimidin-4-yl)oxy)methyl)pyridin-2-yl)methyl)amino)ethan-1-ol], the IC50 in assay [1] (Homo sapiens) was 89.3 nM; at Adenosine A2A receptor, 191 nM and 177 nM.

For `Cc1cc(-c2c(OCc3cccc(CNC(CO)CO)n3)nc(N)nc2-c2ccc(F)cc2)cc(C(F)F)n1` [Example 419, 2-(((6-(((2-amino-5-(2-(difluoromethyl)-6-methylpyridin-4-yl)-6-(4-fluorophenyl)pyrimidin-4-yl)oxy)methyl)pyridin-2-yl)methyl)amino)propane-1,3-diol], the IC50 in assay [1] (Homo sapiens) was 87.8 nM; at Adenosine A2A receptor, 470 nM and 311 nM.

For `Cc1cc(-c2c(OCc3cccc(OC(CO)CO)n3)nc(N)nc2-c2ccc(F)cc2)cc(C(F)F)n1` [Example 420], the IC50 is 55.7 nM in assay [1] (Homo sapiens); 122 nM and 112 nM at Adenosine A2A receptor.

For the molecule `Cc1cc(-c2c(OCc3ccc(=O)n(C)n3)nc(N)nc2-c2ccc(F)cc2)cc(C(F)F)n1` [Example 422, 6-(((2-amino-5-(2-(difluoromethyl)-6-methylpyridin-4-yl)-6-(4-fluorophenyl)pyrimidin-4-yl)oxy)methyl)-2-methylpyridazin-3(2H)-one], the IC50 in assay [1] (Homo sapiens) was 424 nM; on Adenosine A2A receptor, 432 nM and 338 nM.

For the molecule `CNC(=O)OCc1cccc(COc2nc(N)nc(-c3ccc(F)cc3)c2-c2cc(C)nc(C(F)F)c2)n1` [Example 425, (6-(((2-amino-5-(2-(difluoromethyl)-6-methylpyridin-4-yl)-6-(4-fluorophenyl)pyrimidin-4-yl)oxy)methyl)pyridin-2-yl)methyl methylcarbamate], the IC50 in assay [1] (Homo sapiens) was 33.3 nM; in assay [1], 29 nM; on Adenosine A2A receptor, 35 nM and 74 nM and 23 nM.

`Cc1cc(-c2c(OCc3cccc(COC(N)=O)n3)nc(N)nc2-c2ccc(F)cc2)cc(C(F)F)n1` [Example 429, (6-(((2-amino-5-(2-(difluoromethyl)-6-methylpyridin-4-yl)-6-(4-fluorophenyl)pyrimidin-4-yl)oxy)methyl)pyridin-2-yl)methyl carbamate]: the IC50 in assay [1] (Homo sapiens) is 33 nM; at Adenosine A2A receptor it was 59 nM and 43 nM.

With `Cc1cc(-c2c(OCc3cccc(C(C#N)(CCO)CCO)n3)nc(N)nc2-c2ccc(F)cc2)cc(C(F)F)n1` [Example 431, 2-(6-(((2-amino-5-(2-(difluoromethyl)-6-methylpyridin-4-yl)-6-(4-fluorophenyl)pyrimidin-4-yl)oxy)methyl)pyridin-2-yl)-4-hydroxy-2-(2-hydroxyethyl)butanenitrile], the IC50 in assay [1] (Homo sapiens) is 2000 nM; at Adenosine A2A receptor it was 412 nM and 315 nM and 310 nM.

With `Cc1cc(-c2c(OCc3cccc(CNCC(N)=O)n3)nc(N)nc2-c2ccc(F)cc2)cc(C(F)F)n1` [Example 433, 2-(((6-(((2-amino-5-(2-(difluoromethyl)-6-methylpyridin-4-yl)-6-(4-fluorophenyl)pyrimidin-4-yl)oxy)methyl)pyridin-2-yl)methyl)amino)acetamide], the IC50 in assay [1] (Homo sapiens) was 59 nM; on Adenosine A2A receptor, 342 nM and 210 nM.

Take `Cc1cc(-c2c(OCc3ccnc(OC(CO)CO)n3)nc(N)nc2-c2ccc(F)cc2)cc(C(F)F)n1` [Example 434, 2-((4-(((2-amino-5-(2-(difluoromethyl)-6-methylpyridin-4-yl)-6-(4-fluorophenyl)pyrimidin-4-yl)oxy)methyl)pyrimidin-2-yl)oxy)propane-1,3-diol]: the IC50 in assay [1] (Homo sapiens) was 411 nM; at Adenosine A2A receptor, 346 nM and 290 nM.

On to `Cc1cc(-c2c(OCc3cccc(CNCC(=O)N(C)C)n3)nc(N)nc2-c2ccc(F)cc2)cc(C(F)F)n1` [Example 437, 2-(((6-(((2-amino-5-(2-(difluoromethyl)-6-methylpyridin-4-yl)-6-(4-fluorophenyl)pyrimidin-4-yl)oxy)methyl)pyridin-2-yl)methyl)amino)-N,N-dimethylacetamide], for which the IC50 was 232 nM in assay [1] (Homo sapiens) and 282 nM at Adenosine A2A receptor.
